According to patent US7585517B2, “Transscleral delivery” (Macusight, Inc., priority 2003, dated 2009):
Where two headings read alike, the source gives them in different places.

Key:
[1] = Two chamber Ussing type permeability apparatus, transscleral rapamycin delivery; type: in vitro ADME, human; settings: human
Procedure: (§1) Prior to testing of sclera, loss of therapeutic agent to the glass walls of the experimental apparatus was evaluated. For the evaluation of loss of drug to the experimental apparatus, the uveal and orbital chambers were exposed to a 2 μg/mL rapamycin solution in balanced salt solution.
(§2) A 7 mm disk of fresh donor human sclera was used to separate the two chambers of the Ussing permeability apparatus. The two sides of the sclera were denoted “orbital” to represent the outer surface and “uveal” to represent the internal surface. […] Thus, in order to grossly replicate a scleral depot delivery system, the hydrophobic therapeutic agent solvents were diluted to 5% concentration in balanced salt solution (BSS) with dissolved rapamycin to form a roughly 100 μg per ml orbital chamber solution. In this example, the chamber on the orbital surface side contained a reservoir of 200 μl of rapamycin dissolved in 5% DMSO in BSS at an expected concentration of 100 μg per milliliter. The 500 μl uveal chamber was continually perfused at 0.0075 milliliter per minute and samples were collected by a fractionater in Eppendorf tubes every 4 hours. The experiment was run for 36 hours.
(§3) At the peak concentrations in the uveal chamber (250 ng/ml), rapamycin will fully dissolve in vitreous. Because the amount of therapeutic agent in the orbital chamber was declining, the steady state was estimated by the highest flux. […] A permeability coefficient (K) was calculated as:
(§4) [formula] ΔC represents the increase in concentration the compound in the uveal chamber (0.250 micrograms/ml) that occurs over the interval t, in seconds ([…]). V is the chamber volume (1.8 milliliter). A represents the exposed area of the tissue (0.385 cm^2). C0 is the initial concentration of the compound in the orbital chamber (92 microgram/ml). Calculated in this manner, the permeability coefficient, K, has the dimensions of cm/s. KTRANS thus expresses the rate at which a given solute traverses the tissue. (Advanced Therapeutic agent Delivery Reviews 52 (2001) 37-48 by Dale Geroski and Hank Edelhauser, which is incorporated herein by reference in its entirety). For this experiment KTRANS was roughly 8.82×10^−6 cm/sec, which was on the order of predictions based on MW. Comparatively, when evaluating the KTRANS of dexamethasone, which is smaller than rapamycin, and adjusting for a lower solubility, the figures for rapamycin are also in the appropriate predicted ranges. It is expected that as the external concentration of rapamycin is raised, the flux will increase. Under the ex-vivo conditions of this example, rapamycin can be delivered in the single digit micrograms per day to the vitreous. Such rates are consistent with therapeutic local tissue levels and support that rapamycin is a viable therapeutic agent for transscleral delivery to the posterior segment for vitreoretinal disease. Transscleral Rapamycin Delivery—Methanol Solution
(§5) The above procedure was followed with the exception that rapamycin was dissolved in 5% methanol in BSS. The time profile of the concentration of rapamycin in the uveal chamber is depicted in FIG. 3 (circles). The peak concentration in the uveal chamber was 271 ng/ml at t=12 to 16 hours. The total amount of rapamycin accumulated on the uveal side of the sclera is depicted as function of time in FIG. 4 (squares). The total rapamycin recovered from the uveal chamber was 3.44 micrograms in 36 hours.

[2] = tested on: human sclera; test: as above; type: in vitro ADME; settings: for rapamycin held by the sclera at the conclusion of the experiment: 36 hours; for total rapamycin recovered from the uveal chamber: in 36 hours
Procedure: as §1, §2, §3, §4, §5

[3] = Solubility of rapamycin; type: physicochemical
[4] = tested on: laser induced CNV; test: Reversal of laser induced CNV by periocular rapamycin (Example 2); type: in vivo; settings: mice; daily periocular 5 μg in 5 μl corn oil started one week after laser, for one week; SD 0.0053
Procedure: Fifteen mice had Bruch's membrane ruptured with laser photocoagulation at 3 locations in each eye. After one week, 5 mice were perfused with fluorescein-labeled dextran and the baseline area of CNV was measured in each eye. At that point, the remaining mice were started on daily periocular injections of 5 μl of corn oil containing 5 μg of rapamycin in one eye and corn oil alone in the fellow eye. After one more week, the mice were perfused with fluorescein-labeled dextran and CNV areas were measured in each eye on choroidal flat mounts. The corn oil solution used is approximately a saturated solution. It is expected that lower doses will be used to deliver therapeutically effective amounts of rapamycin.
Baseline lesion CNV area was 0.0105 mm^2 with a standard deviation of 0.0037.

[5] = Retinal tissue and blood levels of rapamycin after periocular injection (HPLC/MS); type: in vivo; settings: mice
Procedure: (§6) CNV may be induced by rupturing Bruch's membrane with laser. Fifteen mice were given daily periocular injections of 5 micrograms of rapamycin in corn oil vehicle in one eye. After two days of treatment, Bruch's membrane was ruptured by laser at three sites in each eye. The fellow eye served as control and was treated with periocular injections of corn oil only. Two weeks after laser rupture, 10 mice were perfused with fluorescein-labeled dextran and CNV areas were measured in each eye on choroidal flat mounts. The remaining mice had retinas and RPE/choroid dissected and stored at −70° C. for tissue therapeutic agents level measurement.

[6] = tested on: laser induced CNV; test: Inhibition of laser induced CNV by periocular rapamycin (Example 1); type: in vivo; settings: mice; daily periocular injections of 5 micrograms in corn oil, begun two days before laser rupture; two weeks after laser; SD 0.00197
Procedure: as §6

## CO[C@H]1C[C@@H]2CC[C@@H](C)[C@@](O)(O2)C(=O)C(=O)N2CCCC[C@H]2C(=O)O[C@H]([C@H](C)C[C@@H]2CC[C@@H](O)[C@H](OC)C2)CC(=O)[C@H](C)/C=C(\C)[C@@H](O)[C@@H](OC)C(=O)[C@H](C)C[C@H](C)/C=C/C=C/C=C/1C [rapamycin]
[1]; 5% DMSO in BSS, read-out: permeability coefficient KTRANS
  Papp at 36 h, 92 μg/mL: ~8.82 ×10⁻⁶ cm/s
[1]; 5% methanol in BSS, read-out: permeability coefficient KTRANS
  Papp at 36 h, 100 μg/mL: 9.56 ×10⁻⁶ cm/s
[1]; ex-vivo human scleral tissue, order of magnitude, summary of Example 3, read-out: permeability of human sclera to rapamycin
  Papp at 36 h, 100 μg/mL: ~10 ×10⁻⁶ cm/s
[2]; 5% DMSO in BSS
  time of peak concentration in the uveal chamber: 8 to 12 h
  rapamycin held by the sclera at the conclusion of the experiment: 0.57 micrograms
  total rapamycin recovered from the uveal chamber: 2.67 micrograms
[2]; 5% DMSO in BSS, about 100 μg per ml orbital chamber
  peak concentration in the uveal chamber: 250 ng/mL
[2]; 5% DMSO in BSS, taken as estimate of steady state
  highest flux: 9.35 micrograms per square centimeter per day
[2]; 5% methanol in BSS
  peak concentration in the uveal chamber: 271 ng/mL
  time of peak concentration in the uveal chamber: 12 to 16 h
  rapamycin held by the sclera at the conclusion of the experiment: 0.41 micrograms
  total rapamycin recovered from the uveal chamber: 3.44 micrograms
[3]
  solubility in aqueous solutions: poorly soluble
[4]
  CNV area, treated eyes: 0.00458 mm^2
[5]; periocular 5 μg per day
  rapamycin blood levels: 5.57 nanograms per milligram blood
[5]; periocular 5 μg per day, HPLC/MS
  retinal tissue levels of rapamycin, treated eyes: 25 picograms per milligram tissue
[5]; untreated fellow eye of animals given periocular 5 μg per day in the other eye
  retinal tissue levels of rapamycin, fellow control eyes: 7 picograms per milligram tissue
[6]
  mean CNV area, rapamycin treated eyes: 0.00381 mm^2
